These are literature values, as cited in PMC4340357 (Journal of Chemical Information and Modeling, 2015).

By IC50 is commonly meant the concentration that gives 50% inhibition.

This data set has as its target C. perfringens neuraminidase. The following applies: read-out: IC50 against C. perfringens neuraminidase.

For the compound `CC(C)=CCc1c(O)c(CC=C(C)C)c2oc3c(O)ccc(O)c3c(=O)c2c1O` [Gartanin], the half-inhibitory concentration (IC50) was 2900 ± 300 nM.
